Measurements as given in patent publication US20190263799A1, “1H-IMIDAZO[4,5-B]PYRIDINYL AND 2-OXO-2,3-DIHYDRO-1H-IMIDAZO[4,5-B]PYRIDINYL HETEROCYCLIC BET BROMODOMAIN INHIBITORS” (ZENITH EPIGENETICS LTD., priority 2015, published 2019).
Where a name gives a salt, the structure may show the parent alone. Read-outs that look alike come from different tables or passages of the source.

Experiments:
cMYC = experiment: Inhibition of cMYC expression in cancer cell lines (MV4-11, real-time PCR); type: cell-based; conditions: Homo sapiens, read-out: Myc activity
Procedure: MV4-11 cells (CRL-9591) were plated at a density of 2.5×10^4 cells per well in 96 well U-bottom plates and treated with increasing concentrations of test compound or DMSO (0.1%) in IMDM media containing 10% FBS and penicillin/streptomycin, and incubated for 3 h at 37° C. Triplicate wells were used for each concentration. Cells were pelleted by centrifugation and harvested using the mRNA Catcher PLUS kit according to manufacturer's instructions. The eluted mRNA isolated was then used in a one-step quantitative real-time PCR reaction, using components of the RNA UltraSense™ One-Step Kit (Life Technologies) together with Applied Biosystems TaqMan® primer-probes for cMYC and Cyclophilin. Real-time PCR plates were run on a ViiA™7 real time PCR machine (Applied Biosystems), data were analyzed, normalizing the Ct values for cMYC to an internal control, prior to determining the fold expression of each sample, relative to the control.

BRD4(1) = biological target: T1, BRD4(1) (Homo sapiens, UniProt O60885); experiment: Inhibition of tetra-acetylated histone H4 binding to individual BET bromodomains (AlphaScreen); conditions: His-tagged BRD4(1) 20 nM, biotinylated tetra-acetylated histone H4 peptide, 30 min incubation; read-out: FRET activity BRD4(1)
T1 construct: N-terminally His-tagged bromodomains (BRD4(1) at 20 nM and BRD4(2) at 100 nM); made in house; host or cells: E. coli BL21(DE3)
Procedure: Proteins were cloned and overexpressed with a N-terminal 6×His tag, then purified by nickel affinity followed by size exclusion chromatography. Briefly, E. coli BL21(DE3) cells were transformed with a recombinant expression vector encoding N-terminally Nickel affinity tagged bromodomains from Brd2, Brd3, Brd4. Cell cultures were incubated at 37° C. with shaking to the appropriate density and induced overnight with IPTG. The supernatant of lysed cells was loaded onto Ni-IDA column for purification. Eluted protein was pooled, concentrated and further purified by size exclusion chromatography. Fractions representing monomeric protein were pooled, concentrated, aliquoted, and frozen at −80° C. for use in subsequent experiments.
Binding of tetra-acetylated histone H4 peptide (Millipore) and BET bromodomains was confirmed by Amplified Luminescent Proximity Homogenous Assay (AlphaScreen). N-terminally His-tagged bromodomains (BRD4(1) at 20 nM and BRD4(2) at 100 nM) and biotinylated tetra-acetylated histone H4 (10-25 nM) were incubated in the presence of nickel chelate acceptor beads and streptavidin donor beads (PerkinAlmer, 6760000K) added to a final concentration of 2 μg/mL under green light in a white 96 well microtiter plate (Greiner). For inhibition assays, serially diluted compounds were added to the reaction mixtures in a 0.1% final concentrations of DMSO. Final buffer concentrations were 50 mM HEPES, 100 mM NaCl and 0.1% BSA buffer, pH 7.4 and optimized to 30 min incubation time. Assay plates were read at 570 nm on a Synergy H4 Plate Reader (Biotek). IC50 values were determined from a dose response curve.

MV4-11 cells = experiment: Inhibition of cell proliferation in cancer cell lines (MV4-11, CellTiter Aqueous One); type: cell-based; conditions: Homo sapiens, read-out: Proliferation activity
Procedure: MV4-11 cells (CRL-9591) were plated at a density of 5×10^4 cells per well in 96 well flat bottom plates and treated with increasing concentrations of test compound or DMSO (0.1%) in IMDM media containing 10% FBS and penicillin/streptomycin. Triplicate wells were used for each concentration and a well containing only media was used as a control. Plates were incubated at 37° C., 5% CO2 for 72 h before adding 20 μL of the CellTiter Aqueous One Solution (Promega) to each well and incubating at 37° C., 5% CO2 for an additional 3-4 h. The absorbance was read at 490 nm in a spectrophotometer and the percentage of cell titer relative to DMSO-treated cells was calculated after correcting for background by subtracting the blank well's signal. IC50 values were calculated using the GraphPad Prism software.

[1] = MV4-11 cells, 3 h incubation, cMYC mRNA

Compound | IC50 (cMYC; MV4-11, 3 h) | IC50 (BRD4(1)) | IC50 (MV4-11 cells; MV4-11, 72 h) | IC50 (MV4-11 cells; MV4-11 cells, 72 h incubation) | IC50 (cMYC; [1])
CCN(C(C)=O)c1cnc2nc(C)n(Cc3ccccc3)c2c1 [Example 6, N-(1-Benzyl-2-methyl-1H-imidazo[4,5-b]pyridin-6-yl)-N-ethylacetamide] | 3 to 30 µM | 0.3 to 3 µM | – | – | –
CC(C)OC(=O)N(C)c1cnc2nc(N3CCCC3)n(Cc3ccccc3)c2c1 [Example 37, Isopropyl (1-benzyl-2-(pyrrolidin-1-yl)-1H-imidazo[4,5-b]pyridin-6-yl)(methyl)carbamate] | 0.3 to 3 µM | 0.3 to 3 µM | 3 to 30 µM | – | –
CCC(=O)N(C)c1cnc2nc(N3CCCC3)n(Cc3ccccc3)c2c1 [Example 28, N-(1-Benzyl-2-(pyrrolidin-1-yl)-1H-imidazo[4,5-b]pyridin-6-yl)-N-methylpropionamide] | – | ≤ 0.3 µM | – | 0.3 to 3 µM | 0.3 to 3 µM
Cc1nc2ncc(N(C)C(=O)CCCl)cc2n1Cc1ccccc1 [Example 5, N-(1-Benzyl-2-methyl-1H-imidazo[4,5-b]pyridin-6-yl)-3-chloro-N-methylpropanamide] | – | 0.3 to 3 µM | – | 3 to 30 µM | 3 to 30 µM
C=CC(=O)N(C)c1cnc2nc(NC3CCOCC3)n(Cc3ccccc3)c2c1 [Example 20, N-(1-Benzyl-2-((tetrahydro-2H-pyran-4-yl)amino)-1H-imidazo[4,5-b]pyridin-6-yl)-N-methylacrylamide] | – | ≤ 0.3 µM | – | 0.3 to 3 µM | 0.3 to 3 µM
C=CC(=O)N(C)c1cnc2nc(N3CCC3)n(Cc3ccccc3)c2c1 [Example 17, N-(2-(Azetidin-1-yl)-1-benzyl-1H-imidazo[4,5-b]pyridin-6-yl)-N-methylacrylamide] | 0.3 to 3 µM | ≤ 0.3 µM | 0.3 to 3 µM | – | –
C=CC(=O)N(C)c1cnc2nc(N3C[C@H]4CN(C)C[C@H]4C3)n(Cc3ccccc3)c2c1 [Example 27, N-(1-Benzyl-2-((3aR,6aS)-5-methylhexahydropyrrolo[3,4-c]pyrrol-2(1H)-yl)-1H-imidazo[4,5-b]pyridin-6-yl)-N-methylacrylamide] | – | 0.3 to 3 µM | – | 3 to 30 µM | 3 to 30 µM
C=CC(=O)N(C)c1cnc2nc(N3Cc4cnn(C)c4C3)n(Cc3ccccc3)c2c1 [Example 48, N-(1-Benzyl-2-(1-methylpyrrolo[3,4-c]pyrazol-5(1H,4H,6H)-yl)-1H-imidazo[4,5-b]pyridin-6-yl)-N-methylacrylamide] | – | ≤ 0.3 µM | – | 0.3 to 3 µM | 0.3 to 3 µM
CC(=O)Nc1cnc2nc(C)n(Cc3ccccc3)c2c1 [Example 1, N-(1-Benzyl-2-methyl-1H-imidazo[4,5-b]pyridin-6-yl)acetamide] | – | 3 to 30 µM | – | – | –
C=CC(=O)N(C)c1cnc2nc(N3CC[C@@H](NC(C)=O)C3)n(Cc3ccccc3)c2c1 [Example 44, (R)—N-(2-(3-Acetamidopyrrolidin-1-yl)-1-benzyl-1H-imidazo[4,5-b]pyridin-6-yl)-N-methylacrylamide] | – | ≤ 0.3 µM | – | 3 to 30 µM | 0.3 to 3 µM
C=CC(=O)N(C)c1cnc2nc(N3CC(CO)C3)n(Cc3ccccc3)c2c1 [Example 26, N-(1-Benzyl-2-(3-(hydroxymethyl)azetidin-1-yl)-1H-imidazo[4,5-b]pyridin-6-yl)-N-methylacrylamide] | – | ≤ 0.3 µM | – | 3 to 30 µM | 0.3 to 3 µM
C=CC(=O)N(C)c1cnc2nc(N3CC[C@H](O)C3)n(Cc3ccccc3)c2c1 [Example 46, (S)—N-(1-Benzyl-2-(3-hydroxypyrrolidin-1-yl)-1H-imidazo[4,5-b]pyridin-6-yl)-N-methylacrylamide] | – | ≤ 0.3 µM | – | 0.3 to 3 µM | 0.3 to 3 µM
C=CC(=O)N(C)c1cnc2nc(N3C4CCC3CC(O)C4)n(Cc3ccccc3)c2c1 (centres unmarked) [Example 24, N-(1-Benzyl-2-(3-hydroxy-8-azabicyclo[3.2.1]octan-8-yl)-1H-imidazo[4,5-b]pyridin-6-yl)-N-methylacrylamide] | 0.3 to 3 µM | ≤ 0.3 µM | 3 to 30 µM | – | –
C=CC(=O)N(C)c1cnc2nc(N3CC[C@@H](N(C)C)C3)n(Cc3ccccc3)c2c1 [Example 39, (R)—N-(1-Benzyl-2-(3-(dimethylamino)pyrrolidin-1-yl)-1H-imidazo[4,5-b]pyridin-6-yl)-N-methylacrylamide] | – | ≤ 0.3 µM | – | 0.3 to 3 µM | 0.3 to 3 µM
C=CC(=O)N(C)c1cnc2nc(N3CC[C@@H](CO)C3)n(Cc3ccccc3)c2c1 [Example 45, (R)—N-(1-Benzyl-2-(3-(hydroxymethyl)pyrrolidin-1-yl)-1H-imidazo[4,5-b]pyridin-6-yl)-N-methylacrylamide] | – | ≤ 0.3 µM | – | 0.3 to 3 µM | 0.3 to 3 µM
CC(=O)N(C)c1cnc2nc(C)n(Cc3ccccc3)c2c1 [Example 3, N-(1-Benzyl-2-methyl-1H-imidazo[4,5-b]pyridin-6-yl)—N-methylacetamide] | 3 to 30 µM | ≤ 0.3 µM | 3 to 30 µM | – | –
CNC(=O)N(C)c1cnc2nc(N3CCCC3)n(Cc3ccccc3)c2c1 [Example 31, 1-(1-Benzyl-2-(pyrrolidin-1-yl)-1H-imidazo[4,5-b]pyridin-6-yl)-1,3-dimethylurea] | – | 0.3 to 3 µM | – | 3 to 30 µM | 0.3 to 3 µM
C=CC(=O)N(C)c1cnc2nc(N3CC=CC3)n(Cc3ccccc3)c2c1 [Example 22, N-(1-Benzyl-2-(2,5-dihydro-1H-pyrrol-1-yl)-1H-imidazo[4,5-b]pyridin-6-yl)-N-methylacrylamide hydrochloride] | – | ≤ 0.3 µM | – | 0.3 to 3 µM | 0.3 to 3 µM
CN(C(=O)CCCl)c1cnc2c(c1)n(Cc1ccccc1)c(=O)n2C [Example 10, N-(1-Benzyl-3-methyl-2-oxo-2,3-dihydro-1H-imidazo[4,5-b]pyridin-6-yl)-3-chloro-N-methylpropanamide] | – | 3 to 30 µM | – | 3 to 30 µM | –
C=CC(=O)N(C)c1cnc2c(c1)n(Cc1ccccc1)c(=O)n2C [Example 12, N-(1-Benzyl-3-methyl-2-oxo-2,3-dihydro-1H-imidazo[4,5-b]pyridin-6-yl)-N-methylacrylamide] | – | ≤ 0.3 µM | – | 3 to 30 µM | 3 to 30 µM
C=CC(=O)N(C)c1cnc2nc(NC3CCN(C)CC3)n(Cc3ccccc3)c2c1 [Example 40, N-(1-Benzyl-2-((1-methylpiperidin-4-yl)amino)-1H-imidazo[4,5-b]pyridin-6-yl)-N-methylacrylamide] | 3 to 30 µM | ≤ 0.3 µM | 3 to 30 µM | – | –
C=CC(=O)N(CC)c1cnc2c(c1)n(Cc1ccccc1)c(=O)n2C [Example 14, N-(1-Benzyl-3-methyl-2-oxo-2,3-dihydro-1H-imidazo[4,5-b]pyridin-6-yl)-N-ethylacrylamide] | – | 0.3 to 3 µM | – | – | –
CC(C)C(=O)N(C)c1cnc2nc(N3CCCC3)n(Cc3ccccc3)c2c1 [Example 33, N-(1-Benzyl-2-(pyrrolidin-1-yl)-1H-imidazo[4,5-b]pyridin-6-yl)-N-methylisobutyramide] | – | 0.3 to 3 µM | – | 3 to 30 µM | 0.3 to 3 µM
C=CC(=O)N(CC)c1cnc2nc(C)n(Cc3ccccc3)c2c1 [Example 7, N-(1-Benzyl-2-methyl-1H-imidazo[4,5-b]pyridin-6-yl)-N-ethylacrylamide] | – | 0.3 to 3 µM | – | – | –
CCN(C(C)=O)c1cnc2c(c1)n(Cc1ccccc1)c(=O)n2C [Example 13, N-(1-Benzyl-3-methyl-2-oxo-2,3-dihydro-1H-imidazo[4,5-b]pyridin-6-yl)-N-ethylacetamide] | – | 0.3 to 3 µM | – | – | –
